# Reference: ChEMBL document CHEMBL2203284, “Synthesis and structure based optimization of 2-(4-phenoxybenzoyl)-5-hydroxyindole as a novel CaMKII inhibitor” (Bioorg Med Chem, 2012)
# Legend:
# [1] = Selectivity ratio of IC50 for PKCgamma to IC50 for recombinant CaMK2
# [2] = Selectivity ratio of IC50 for Akt1 to IC50 for recombinant CaMK2
# [3] = Selectivity ratio of IC50 for MLCK to IC50 for recombinant CaMK2
# [4] = Selectivity ratio of IC50 for p38alpha to IC50 for recombinant CaMK2
# [5] = Solubility of the compound in water at pH 7.4; assay type: physicochemical
# [6] = Inhibition of recombinant CaMK2 expressed in Sf9cells using autocamtide-2/CAM as substrate after 90 mins; conditions: sf9
IC50 [6],SMILES,also measured
0.012 µM,O=C(c1ccc(Oc2ccccc2)cc1)c1cc2c(Br)c(O)c(Br)cc2[nH]1,Ratio IC50 [1]: 1250; Ratio IC50 [2]: > 5000; Ratio IC50 [3]: 63; Ratio IC50 [4]: 450; solubility [5]: < 1 µg/mL
0.42 µM,O=C(c1ccc(Oc2ccccc2)cc1)c1cc2c(OCCN3CCC(O)CC3)cccc2[nH]1,
0.061 µM,O=C(c1ccc(Oc2ccccc2)cc1)c1cc2c(Cl)c(O)c(Cl)cc2[nH]1,solubility [5]: < 1 µg/mL
1.1 µM,CCNCCOc1cccc2[nH]c(C(=O)c3ccc(Oc4ccccc4)cc3)cc12,
1.5 µM,CCNCCOc1ccc2[nH]c(C(=O)c3ccc(Oc4ccccc4)cc3)cc2c1,
1.5 µM,CC(C)(Oc1ccc2[nH]c(C(=O)c3ccc(Oc4ccccc4)cc3)cc2c1)C(=O)O,
1.3 µM,Cc1c(O)ccc2[nH]c(C(=O)c3ccc(Oc4ccccc4)cc3)cc12,
0.8 µM,O=C(c1ccc(Oc2ccccc2)cc1)c1cc2c(OCCCN3CCCCC3)cccc2[nH]1,
0.27 µM,O=C(c1ccc(Oc2ccccc2)cc1)c1cc2c(OCCN3CCNCC3)cccc2[nH]1,
0.61 µM,O=C(c1ccc(Oc2ccccc2)cc1)c1cc2cc(O)ccc2[nH]1,Ratio IC50 [1]: 93; Ratio IC50 [2]: 295; Ratio IC50 [3]: < 1; Ratio IC50 [4]: < 1
2.6 µM,NCCOc1cccc2[nH]c(C(=O)c3ccc(Oc4ccccc4)cc3)cc12,
0.51 µM,O=C(O)COc1ccc2[nH]c(C(=O)c3ccc(Oc4ccccc4)cc3)cc2c1,
0.64 µM,O=C(c1ccc(Oc2ccccc2)cc1)c1cc2c(Cl)c(O)ccc2[nH]1,
0.82 µM,O=C(c1ccc(Oc2ccccc2)cc1)c1cc2c(OCCN3CCCCC3)cccc2[nH]1,
0.04 µM,O=C(c1ccc(Oc2ccccc2)cc1)c1cc2c(Br)c(O)ccc2[nH]1,Ratio IC50 [1]: 550; Ratio IC50 [2]: 1500; Ratio IC50 [3]: 12; Ratio IC50 [4]: 115; solubility [5]: < 1 µg/mL
> 10 µM,COc1ccc2[nH]c(C(=O)c3ccc(Oc4ccccc4)cc3)cc2c1,
